Patent US9738902B2, “Modified PYR/PYL receptors activated by ligands” (priority 2013, dated 2017)

Test system: transgenic 35S::PYR1^MANDI tomato plants
Assay: thermal imaging of leaf temperature
Assay type: in vivo
Conditions: 10 μM mandipropamid, 24 hours post treatment
Source text: The core ABA response pathway is highly conserved and it is therefore expected that PYR1^MANDI should be able to activate ABA responses in response to mandipropamid in most land plants. To investigate if the physiological activity of PYR1^MANDI is functional in other species besides Arabidopsis we made transgenic 35S::PYR1^MANDI tomato. The same construct utilized for construction of Arabidopsis transgenics (described in Example 5) was modified to contain a kanamycin selection marker. Tomato was transformed by Agrobacterium-mediated transformation, which was conducted as described by Sun et al. (2006) with a few modifications. Surface sterilized tomato seeds (strain UC82B) were germinated on sterilized wet filter paper in a petridish. Cotyledons from 7-day old seedlings were excised and dipped into a suspension of Agrobacterium in MS medium containing 100 μM acetosyringone and 10 μM 2-mercaptoethanol for 10 minutes. Explants were then placed on co-cultivation medium containing MS salts, 3% sucrose, 0.3% Gelite and 1.5 mg/L zeatin. After 3 days of co-culture in darkness, the explants were transferred onto callus induction medium containing MS salts, 3% sucrose, 0.3% Gelite, 1.5 mg/L zeatin and 100 mg/L kanamycin and 125 mg/L carbenicillin. Explants were transferred to freshly prepared medium every 2 weeks. […]

C#CCOc1ccc(CCNC(=O)C(OCC#C)c2ccc(Cl)cc2)cc1OC (stereo not shown) [Mandipropamid, mandipropamid]
leaf temperature: increase in leaf temperature
